Source: PubChem BioAssay (NCI)
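Compound exposure: 48 hours, 5 concentrations, 96-well plates. The concentration for 50% growth inhibition is given as GI50. TGI: concentration producing complete growth inhibition.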

What was measured:
Experiment in all cases: NCI tumour cell line growth inhibition, 48 h
[1] = tested on: DU-145 prostate
[2] = tested on: HCC-2998 colon
[3] = tested on: HOP-92 NSCLC
[4] = tested on: IGROV1 ovarian
[5] = tested on: K-562 leukemia
[6] = tested on: KM12 colon
[7] = tested on: LOX IMVI melanoma
[8] = tested on: NCI-H23 lung
[9] = tested on: NCI/ADR-RES ovarian
[10] = tested on: SK-OV-3 ovarian

Row | SMILES | GI50 [1] | TGI [1] | GI50 [2] | TGI [2] | GI50 [3] | TGI [3] | GI50 [4] | TGI [4] | GI50 [5] | TGI [5] | GI50 [6] | TGI [6] | GI50 [7] | TGI [7] | GI50 [8] | TGI [8] | GI50 [9] | TGI [9] | GI50 [10] | TGI [10]
1 | ClCc1ccc(-c2ccc(Cn3cnc4c(Cl)nc(Cl)nc43)cc2)cc1 | 1.58 µM | 2.94 µM | 1.41 µM | 2.9 µM | 1.98 µM | 5.56 µM | 0.885 µM | 2.28 µM | 10.4 µM | > 100 µM | 2.12 µM | 4.4 µM | 1.64 µM | 3.2 µM | 3.18 µM | 14.4 µM | 2.5 µM | 7.55 µM | 10.6 µM | 22.6 µM
2 | C=C1C(=O)O[C@H]2[C@H]1CC/C(Cn1cc(Cn3ccc4ccccc43)nn1)=C\CC[C@@]1(C)O[C@@H]21 | 1.64 µM | 3.01 µM | 1.93 µM | 3.66 µM | 1.01 µM | 2.29 µM | 1.86 µM | 3.61 µM | 1.77 µM | 5.65 µM | 4.21 µM | 15.2 µM | 1.59 µM | 3.08 µM | 2.5 µM | 6.49 µM | 5.07 µM | 21.6 µM | 16 µM | 30.1 µM
3 | N#CC(=S)Nc1ccc(Cl)c(Cl)c1 | – | > 100 µM | – | 34.8 µM | – | 9.59 µM | – | 53.8 µM | – | 46.9 µM | – | > 95.6 µM | – | 66.2 µM | – | > 59.2 µM | – | 65.4 µM | – | 61.6 µM
4 | CCOC(=O)/C(=C/c1ccc([N+](=O)[O-])cc1)C(=O)c1ccccc1 | 2.08 µM | 4.27 µM | 1.87 µM | 3.43 µM | 2.01 µM | 4.45 µM | 2.53 µM | 7.4 µM | 3.5 µM | 28.7 µM | 2.16 µM | 4.65 µM | 1.77 µM | 3.38 µM | 2.25 µM | 5.56 µM | 3.43 µM | 19.8 µM | 11.5 µM | 23.6 µM
5 | COc1cc(/C=C2\CN(C)C/C(=C\c3cc(OC)c(OC)c(OC)c3)C2=O)cc(OC)c1OC | 0.355 µM | 1.22 µM | 0.366 µM | 1.22 µM | 0.774 µM | 2.8 µM | 0.413 µM | 1.73 µM | 0.334 µM | > 100 µM | 0.195 µM | 0.394 µM | 0.141 µM | 0.37 µM | 0.42 µM | 1.61 µM | 0.349 µM | > 100 µM | 0.412 µM | 1.41 µM
6 | COc1ccc(N(CC(=O)NCCC[Te]c2ccccc2)C(=O)CCSC2=C(C)C(=O)c3ccccc3C2=O)cc1 | 1.44 µM | 3.24 µM | 1.67 µM | 4.44 µM | 1.72 µM | 4.44 µM | 0.888 µM | 2.35 µM | 2.48 µM | > 22.7 µM | 0.702 µM | 2.18 µM | 1.5 µM | 3.54 µM | 0.623 µM | 2.83 µM | 1.46 µM | 6.16 µM | 2.14 µM | 4.67 µM
7 | CCOC(=O)c1ccc(N(CCOS(C)(=O)=O)CCOS(C)(=O)=O)cc1C | 18.4 µM | 38.9 µM | 28.1 µM | 66.6 µM | 36.7 µM | > 100 µM | 91.4 µM | > 100 µM | 49.7 µM | > 100 µM | 90.4 µM | > 100 µM | 29.1 µM | > 100 µM | 15.1 µM | 55.5 µM | 23.7 µM | 66.9 µM | 33.6 µM | > 100 µM
8 | C=C1C(=O)O[C@@H]2C(=O)[C@@H](C)[C@@H]3C=CC(=O)[C@@]3(C)[C@@H](OC(=O)/C(C)=C\C)[C@H]12 | – | 3.5 µM | – | 3.23 µM | – | 1.43 µM | – | 3.28 µM | – | 1.64 µM | – | 8 µM | – | 1.6 µM | – | 9.8 µM | – | 7.28 µM | – | 26.9 µM
9 | O=C(Nc1n[nH]c2nc(-c3ccco3)ccc12)C1CC1 | > 25 µM | > 25 µM | > 25 µM | > 25 µM | > 7.9 µM | > 7.9 µM | > 25 µM | > 25 µM | > 25 µM | > 25 µM | > 25 µM | > 25 µM | > 25 µM | > 25 µM | > 25 µM | > 25 µM | > 25 µM | > 25 µM | > 25 µM | > 25 µM
